Measured values as given in patent US6420163B1, “Pharmacological targeting of mRNA cap formation” (priority 1998, dated 2002).

Columns and labels:
[1] = target: T1, human cap methyltransferase (Hcm1p) (Homo sapiens, UniProt O43148); assay type: biochemical
T1 construct: His-tag (pET16b leader) (N); made in house; host or cells: Escherichia coli BL21(DE3)

[2] = target: T2, Mce1(1-210)p RNA triphosphatase domain (Mus musculus, UniProt O55236); settings: 0.5 mM divalent cation; cited from earlier work
T2 construct: The N-terminal portion of Mce1p from residues 1-210 is an autonomous RNA triphosphatase domain; made in house; host or cells: bacteria
T2 sequence (O55236 1-210): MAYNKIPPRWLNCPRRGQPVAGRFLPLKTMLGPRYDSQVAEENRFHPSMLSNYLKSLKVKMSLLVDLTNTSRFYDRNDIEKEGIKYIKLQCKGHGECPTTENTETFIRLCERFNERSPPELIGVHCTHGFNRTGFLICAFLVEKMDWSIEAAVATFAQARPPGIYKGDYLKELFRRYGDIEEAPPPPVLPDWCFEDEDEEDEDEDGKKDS

[3] = target: LEF-4 (Autographa californica nuclear polyhedrosis virus, UniProt P41477); settings: read-out: Km for ATP; cited from earlier work
LEF-4, sequence (P41477 whole entry): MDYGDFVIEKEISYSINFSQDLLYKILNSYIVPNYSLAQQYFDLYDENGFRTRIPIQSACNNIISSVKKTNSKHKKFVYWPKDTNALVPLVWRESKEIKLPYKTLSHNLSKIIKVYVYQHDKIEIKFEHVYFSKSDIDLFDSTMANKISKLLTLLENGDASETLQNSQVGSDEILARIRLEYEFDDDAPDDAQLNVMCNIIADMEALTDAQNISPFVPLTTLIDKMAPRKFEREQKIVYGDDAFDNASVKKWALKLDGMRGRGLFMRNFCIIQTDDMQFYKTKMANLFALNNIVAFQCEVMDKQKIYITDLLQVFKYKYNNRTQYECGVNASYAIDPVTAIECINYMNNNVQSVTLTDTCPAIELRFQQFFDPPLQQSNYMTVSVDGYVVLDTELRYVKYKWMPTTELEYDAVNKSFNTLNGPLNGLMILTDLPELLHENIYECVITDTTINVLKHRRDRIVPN

[4] = target: T3, yeast RNA triphosphatase Cet1p (Saccharomyces cerevisiae, UniProt O13297); experiment: Manganese-dependent ATP hydrolysis by Cet1p; assay type: biochemical; settings: full-length Cet1p, 2 mM MnCl2, pH 7.0, 30° C.
T3 construct: His-tag; made in house; host or cells: Escherichia coli BL21(DE3)
T3 sequence (O13297 1-549): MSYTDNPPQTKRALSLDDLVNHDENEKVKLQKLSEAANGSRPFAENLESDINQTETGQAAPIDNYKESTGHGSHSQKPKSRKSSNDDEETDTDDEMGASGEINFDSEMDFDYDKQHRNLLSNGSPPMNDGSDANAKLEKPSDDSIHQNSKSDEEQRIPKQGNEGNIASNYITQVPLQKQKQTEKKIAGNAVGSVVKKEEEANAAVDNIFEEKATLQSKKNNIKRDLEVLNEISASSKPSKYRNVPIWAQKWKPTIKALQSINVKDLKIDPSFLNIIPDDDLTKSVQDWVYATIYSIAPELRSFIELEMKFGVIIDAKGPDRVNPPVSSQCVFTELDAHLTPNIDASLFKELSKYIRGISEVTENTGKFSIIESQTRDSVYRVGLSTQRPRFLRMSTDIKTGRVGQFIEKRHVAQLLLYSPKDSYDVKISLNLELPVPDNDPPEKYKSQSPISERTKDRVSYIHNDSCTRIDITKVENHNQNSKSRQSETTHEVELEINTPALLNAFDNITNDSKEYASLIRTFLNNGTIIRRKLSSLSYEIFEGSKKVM
Procedure: (§1) (FIG. 8A) Protein titration. Reaction mixtures (10 μl) containing 50 mM Tris HCl (pH 7.0), 5 mM DTT, 2 mM MnCl2, 1 mM [γ^32P]ATP, and either Cet1p, Cet1(201-549)p, or Cet1(246-549)p were incubated for 15 min at 30° C. Pi release is plotted as a function of input protein. (FIG. 8B) Kinetics. Reaction mixtures (100 μl) containing 50 mM Tris HCl (pH 7.0), 5 mM DTT, 2 mM MnCl2, 1 mM [γ^32P]ATP, and either 8, 16, or 32 nM Cet1p were incubated at 30° C. Aliquots (10 μl) were withdrawn at the times indicated and quenched immediately by the addition of […] of 5 M formic acid. Pi release is plotted as a function of time. (FIG. 8C) Hydrolysis of [α^32P]ATP. […] The products were analyzed by TLC. […] An otherwise identical reaction containing 1 mM [γ^32P]ATP was analyzed in parallel; Pi release (●). […]
(§2) The extent of ^32Pi relase from [Υ^32P]ATP during a 15 min reaction was proportional to the amount of input Cetlp protein (FIG. 8A). ^32Pi accumulated with time over 30 min; the rate of reaction varied linearly with Cetlp concentration (FIG. 8B). From a plot of initial rate versus enzyme concentration, a turnover number of 25 s^−1 was calculated. Cetlp catalyzed the quantitative conversion of [α^32P]ATP to [α^32P]ADP. […] No formation of [α^32P]AMP from [α^32P]ATP was detected, even after 20-45 min of incubation, by which time all of the nucleotide had been converted to ADP. […]

[5] = target: T4, yeast RNA triphosphatase Cet1p (Saccharomyces cerevisiae, UniProt O13297); experiment: Manganese-dependent ATP hydrolysis by Cet1p; assay type: biochemical; settings: truncated Cet1(201-549)p
T4 construct: His-tag; made in house; host or cells: Escherichia coli BL21(DE3)
Procedure: as §1, §2

[6] = target: vaccinia triphosphatase (Vaccinia virus, UniProt P04298); settings: read-out: Km for ATP; cited from earlier work

T1 sequence (O43148 whole entry): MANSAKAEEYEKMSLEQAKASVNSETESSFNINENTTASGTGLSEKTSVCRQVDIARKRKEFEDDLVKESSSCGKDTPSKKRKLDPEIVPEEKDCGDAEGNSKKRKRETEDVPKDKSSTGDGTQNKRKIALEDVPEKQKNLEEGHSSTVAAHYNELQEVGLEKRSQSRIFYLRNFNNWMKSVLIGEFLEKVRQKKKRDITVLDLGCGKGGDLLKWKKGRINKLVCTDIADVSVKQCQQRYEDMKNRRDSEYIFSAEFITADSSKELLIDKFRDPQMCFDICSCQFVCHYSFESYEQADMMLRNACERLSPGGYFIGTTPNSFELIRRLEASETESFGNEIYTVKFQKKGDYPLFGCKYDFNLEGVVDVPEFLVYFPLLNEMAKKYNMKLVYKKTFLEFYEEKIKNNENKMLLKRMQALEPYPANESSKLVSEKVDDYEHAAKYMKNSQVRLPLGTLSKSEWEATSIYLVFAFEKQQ

SMILES: C[S+](CC[C@H](N)C(=O)[O-])C[C@H]1O[C@@H](n2cnc3c(N)ncnc32)[C@H](O)[C@@H]1O (stereo partly shown) [AdoMet, S-adenosylmethionine]
- AdoMet concentration giving half-maximal activity ([1]; peak glycerol gradient fraction of Hcm1p): ~25 µM

SMILES: [Cl][Mn][Cl] [MnCl2]
- inhibition of RNA triphosphatase activity [2]: 75%

SMILES: Nc1ncnc2c1ncn2[C@@H]1O[C@H](CSCC[C@H](N)C(=O)O)[C@@H](O)[C@H]1O [AdoHcy, S-adenosylhomocysteine]
- effect on cap methylation (FIG. 9, lane 4) ([1]; 50 μM AdoMet plus 500 μM AdoHcy): partially inhibitory
- reduction of cap methylation ([1]; 100 μM AdoHcy in the presence of 10 μM AdoMet): 80%

SMILES: [Cl-].[Cl-].[Mg+2] [MgCl2]
- inhibition of RNA triphosphatase activity [2]: 75%
- effect of magnesium on cap methylation ([1]; 1 mM magnesium): reduced by an order of magnitude

SMILES: Nc1ncnc2c1ncn2[C@@H]1O[C@H](COP(=O)(O)OP(=O)(O)OP(=O)(O)O)[C@@H](O)[C@H]1O [ATP]
- Km [3]: 43 µM
- Km [4]: 2.8 µM
- Km [5]: 3.3 µM
- Km [6]: 800 µM
